Laboratory results as given in patent publication US9708314B2, “Heterocyclic amide compound” (NISSAN CHEMICAL INDUSTRIES, LTD., priority 2013, dated 2017).

Assays:
Type in all cases: in vivo
[1] = test system: Brassica campestris L.; assay: Test Example 4: effect on crop by application to foliage (diluvial soil, plastic box)
How it was run: (§1)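 Emulsion-formulated compound, diluted to a predetermined g/ha dose, applied by small sprayer to leaves and stems of 14-day-old seedlings grown in sterilized diluvial soil. Effect rated on 0–5 herbicidal-ratio scale three weeks on.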

[2] = test system: Zea mays; assay: as above
How it was run: as §1

[3] = test system: Beta vulgaris ssp. vulgaris; assay: as above
How it was run: as §1

[4] = test system: Triticum aestivum; assay: as above
How it was run: as §1

[5] = test system: Glycine max; assay: as above
How it was run: as §1

[6] = test system: Stellaria media; assay: Test Example 4: herbicidal effect by application to foliage (diluvial soil, plastic box)
How it was run: as §1

[7] = test system: Galium spurium; assay: as above
How it was run: as §1

[8] = test system: Apera spica-venti.; assay: as above
How it was run: as §1

[9] = test system: Digitaria ciliaris; assay: as above
How it was run: as §1

[10] = test system: Amaranthus retroflexus; assay: as above
How it was run: as §1

[11] = test system: Abutilon theophrasti; assay: as above
How it was run: as §1

[12] = test system: Echinochloa crus-galli var. crus-galli; assay: as above
How it was run: as §1

[13] = test system: Setaria viridis; assay: as above
How it was run: as §1

[14] = test system: Veronica persica; assay: as above
How it was run: as §1

[15] = test system: Alopecurus myosuroides; assay: as above
How it was run: as §1

[16] = test system: Lolium multiflorum Lam.; assay: as above
How it was run: as §1

[17] = test system: Avena fatua; assay: as above
How it was run: as §1

[18] = test system: Chenopodium album; assay: as above
How it was run: as §1

[19] = test system: directly sowed Oryza sativa; assay: Test Example 3: effect on crop by application to foliage (Wagner pot, water depth 0.1-0.5 cm); conditions: Nineteenth Table; application to foliage; application herbicide amount 320 g/ha
How it was run: (§2)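 Visual 0–5 rating of herbicidal ratio, taken 3 weeks after foliar spray of a diluted emulsion formulation at rates expressed as g/ha. Plants had been sown in alluvial soil under 0.1–0.5 cm water and grown 14 days at 25–30 °C under glass before application.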

[20] = test system: Leptochloa chinensis; assay: Test Example 3: herbicidal effect by application to foliage (Wagner pot, water depth 0.1-0.5 cm); conditions: Nineteenth Table; application to foliage; application herbicide amount 320 g/ha
How it was run: as §2

[21] = test system: Cyperus difformis; assay: as above; conditions: Nineteenth Table; application to foliage; application herbicide amount 320 g/ha
How it was run: as §2

[22] = test system: Echinochloa crus-galli var. crus-galli; assay: as above; conditions: Nineteenth Table; application to foliage; application herbicide amount 320 g/ha
How it was run: as §2

[23] = test system: directly sowed Oryza sativa; assay: Test Example 4: effect on crop by application to foliage (diluvial soil, plastic box); conditions: application to foliage
How it was run: as §1

[24] = Application herbicide amount 320 g/ha, foliage application
[25] = application to foliage, 320 g/ha
[26] = application to foliage, application herbicide amount 320 g/ha

## CSCc1nnc(NC(=O)c2ccc(C(F)(F)F)n3c(C(C)C)nnc23)o1 [1-141]
[1]; [24]
  g (Brassica campestris L.) effect on crop grade: 4 (Herbicidal ratio of 70% or more and less than 90%)
[2]; [24]
  c (Zea mays) effect on crop grade: 0 (Herbicidal ratio of 5% or less (almost no effect))
[3]; [24]
  f (Beta vulgaris ssp. vulgaris) effect on crop grade: 4 (Herbicidal ratio of 70% or more and less than 90%)
[4]; [24]
  e (Triticum aestivum) effect on crop grade: 0 (Herbicidal ratio of 5% or less (almost no effect))
[5]; [24]
  d (Glycine max) effect on crop grade: 1 (Herbicidal ratio of 5% or more and less than 20%)
[6]; [24]
  P (Stellaria media) herbicidal effect grade: 3 (Herbicidal ratio of 40% or more and less than 70%)
[7]; [24]
  Q (Galium spurium) herbicidal effect grade: 1 (Herbicidal ratio of 5% or more and less than 20%)
[8]; [24]
  L (Apera spica-venti.) herbicidal effect grade: 0 (Herbicidal ratio of 5% or less (almost no effect))
[9]; [24]
  F (Digitaria ciliaris) herbicidal effect grade: 3 (Herbicidal ratio of 40% or more and less than 70%)
[10]; [24]
  N (Amaranthus retroflexus) herbicidal effect grade: 3 (Herbicidal ratio of 40% or more and less than 70%)
[11]; [24]
  M (Abutilon theophrasti) herbicidal effect grade: 3 (Herbicidal ratio of 40% or more and less than 70%)
[12]; [24]
  H (Echinochloa crus-galli var. crus-galli) herbicidal effect grade: 4 (Herbicidal ratio of 70% or more and less than 90%)
[13]; [24]
  G (Setaria viridis) herbicidal effect grade: 1 (Herbicidal ratio of 5% or more and less than 20%)
[14]; [24]
  R (Veronica persica) herbicidal effect grade: 3 (Herbicidal ratio of 40% or more and less than 70%)
[15]; [24]
  J (Alopecurus myosuroides) herbicidal effect grade: 0 (Herbicidal ratio of 5% or less (almost no effect))
[16]; [24]
  K (Lolium multiflorum Lam.) herbicidal effect grade: 0 (Herbicidal ratio of 5% or less (almost no effect))
[17]; [24]
  I (Avena fatua) herbicidal effect grade: 0 (Herbicidal ratio of 5% or less (almost no effect))
[18]; [24]
  O (Chenopodium album) herbicidal effect grade: 4 (Herbicidal ratio of 70% or more and less than 90%)
[19]
  b (effect on crop grade): 1 (Herbicidal ratio of 5% or more and less than 20%)
[20]
  D (herbicidal effect grade): 2 (Herbicidal ratio of 20% or more and less than 40%)
[21]
  E (herbicidal effect grade): 3 (Herbicidal ratio of 40% or more and less than 70%)
[22]
  H (herbicidal effect grade): 4 (Herbicidal ratio of 70% or more and less than 90%)

## Cc1nonc1NC(=O)c1ccc(C(F)(F)F)n2c(SCC(C)C)nnc12 [3-002]
[1]; [25]
  effect on crop, g (Brassica campestris L.): 0 (Herbicidal ratio of 5% or less (almost no effect))
[23]; 320 g/ha
  effect on crop, d (directly sowed Oryza sativa): 0 (Herbicidal ratio of 5% or less (almost no effect))
[2]; [25]
  effect on crop, b (Zea mays): 0 (Herbicidal ratio of 5% or less (almost no effect))
[3]; [25]
  effect on crop, f (Beta vulgaris ssp. vulgaris): 0 (Herbicidal ratio of 5% or less (almost no effect))
[4]; [25]
  effect on crop, e (Triticum aestivum): 0 (Herbicidal ratio of 5% or less (almost no effect))
[5]; [25]
  effect on crop, c (Glycine max): 0 (Herbicidal ratio of 5% or less (almost no effect))
[6]; [25]
  herbicidal effect, P (Stellaria media): 1 (Herbicidal ratio of 5% or more and less than 20%)
[7]; [25]
  herbicidal effect, Q (Galium spurium): 0 (Herbicidal ratio of 5% or less (almost no effect))
[8]; [25]
  herbicidal effect, L (Apera spica-venti.): 0 (Herbicidal ratio of 5% or less (almost no effect))
[9]; [25]
  herbicidal effect, F (Digitaria ciliaris): 0 (Herbicidal ratio of 5% or less (almost no effect))
[10]; [25]
  herbicidal effect, N (Amaranthus retroflexus): 3 (Herbicidal ratio of 40% or more and less than 70%)
[11]; [25]
  herbicidal effect, M (Abutilon theophrasti): 1 (Herbicidal ratio of 5% or more and less than 20%)
[12]; [25]
  herbicidal effect, H (Echinochloa crus-galli var. crus-galli): 0 (Herbicidal ratio of 5% or less (almost no effect))
[13]; [25]
  herbicidal effect, G (Setaria viridis): 0 (Herbicidal ratio of 5% or less (almost no effect))
[14]; [25]
  herbicidal effect, R (Veronica persica): 0 (Herbicidal ratio of 5% or less (almost no effect))
[15]; [25]
  herbicidal effect, J (Alopecurus myosuroides): 0 (Herbicidal ratio of 5% or less (almost no effect))
[16]; [25]
  herbicidal effect, K (Lolium multiflorum Lam.): 0 (Herbicidal ratio of 5% or less (almost no effect))
[17]; [25]
  herbicidal effect, I (Avena fatua): 0 (Herbicidal ratio of 5% or less (almost no effect))
[18]; [25]
  herbicidal effect, O (Chenopodium album): 4 (Herbicidal ratio of 70% or more and less than 90%)
[19]
  b (effect on crop grade): 0 (Herbicidal ratio of 5% or less (almost no effect))
[20]
  D (herbicidal effect grade): 3 (Herbicidal ratio of 40% or more and less than 70%)
[22]
  H (herbicidal effect grade): 0 (Herbicidal ratio of 5% or less (almost no effect))

## CCN(C(=O)c1ccc(C(F)(F)F)n2c(C3(C)CC3(Cl)Cl)nnc12)c1nnc(C)o1 (stereo not drawn) [1-174, 3-(2,2-Dichloro-1-methylcyclopropyl)-N-ethyl-N-(5-methyl-1,3,4-oxadiazol-2-yl)-5-(trifluoromethyl)-[1,2,4]triazolo[4,3-a]pyridine-8-carboxamide]
[1]; [26]
  g: effect on crop, Brassica campestris L.: 0 (Herbicidal ratio of 5% or less (almost no effect))
[23]; application herbicide amount 320 g/ha
  b: effect on crop, directly sowed Oryza sativa: 0 (Herbicidal ratio of 5% or less (almost no effect))
[2]; [26]
  c: effect on crop, Zea mays: 0 (Herbicidal ratio of 5% or less (almost no effect))
[3]; [26]
  f: effect on crop, Beta vulgaris ssp. vulgaris: 4 (Herbicidal ratio of 70% or more and less than 90%)
[4]; [26]
  e: effect on crop, Triticum aestivum: 0 (Herbicidal ratio of 5% or less (almost no effect))
[5]; [26]
  d: effect on crop, Glycine max: 0 (Herbicidal ratio of 5% or less (almost no effect))
[6]; [26]
  P: herbicidal effect on Stellaria media: 3 (Herbicidal ratio of 40% or more and less than 70%)
[7]; [26]
  Q: herbicidal effect on Galium spurium: 3 (Herbicidal ratio of 40% or more and less than 70%)
[8]; [26]
  L: herbicidal effect on Apera spica-venti.: 0 (Herbicidal ratio of 5% or less (almost no effect))
[9]; [26]
  F: herbicidal effect on Digitaria ciliaris: 0 (Herbicidal ratio of 5% or less (almost no effect))
[10]; [26]
  N: herbicidal effect on Amaranthus retroflexus: 4 (Herbicidal ratio of 70% or more and less than 90%)
[11]; [26]
  M: herbicidal effect on Abutilon theophrasti: 0 (Herbicidal ratio of 5% or less (almost no effect))
[12]; [26]
  H: herbicidal effect on Echinochloa crus-galli var. crus-galli: 0 (Herbicidal ratio of 5% or less (almost no effect))
[13]; [26]
  G: herbicidal effect on Setaria viridis: 0 (Herbicidal ratio of 5% or less (almost no effect))
[14]; [26]
  R: herbicidal effect on Veronica persica: 3 (Herbicidal ratio of 40% or more and less than 70%)
[15]; [26]
  J: herbicidal effect on Alopecurus myosuroides: 0 (Herbicidal ratio of 5% or less (almost no effect))
[16]; [26]
  K: herbicidal effect on Lolium multiflorum Lam.: 0 (Herbicidal ratio of 5% or less (almost no effect))
[17]; [26]
  I: herbicidal effect on Avena fatua: 0 (Herbicidal ratio of 5% or less (almost no effect))
[18]; [26]
  O: herbicidal effect on Chenopodium album: 5 (Herbicidal ratio of 90% or more (almost completely withered))
[19]
  b (effect on crop grade): 0 (Herbicidal ratio of 5% or less (almost no effect))
[20]
  D (herbicidal effect grade): 2 (Herbicidal ratio of 20% or more and less than 40%)
[22]
  H (herbicidal effect grade): 2 (Herbicidal ratio of 20% or more and less than 40%)
